Reference: ChEMBL document CHEMBL1201862, “PubChem BioAssay data set” (2004)
Counter-ions that a name gives are not always drawn.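 48-hour exposure; five concentrations; linearly interpolated endpoints. GI50 is the concentration that inhibits growth by half.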 Calls of active or inactive are those of the source. Cut-off read from the data, not from the text of the source: active = GI50 up to about 1.1 µM and inactive = higher.

How the values were obtained:
Test in all cases: NCI-60 cell line screen, 48 h
COLO 205 = system: COLO 205
A549 = system: A549
UACC-257 = system: UACC-257
NCI-H522 = system: NCI-H522
NCI-H226 = system: NCI-H226
HOP-92 = system: HOP-92
NCI/ADR-RES = system: NCI/ADR-RES
SF-295 = system: SF-295
EKVX = system: EKVX
SK-MEL-5 = system: SK-MEL-5
SW-620 = system: SW-620
HT-29 = system: HT-29
SR = system: SR
Hs-578T = system: Hs-578T
NCI-H460 = system: NCI-H460
OVCAR-8 = system: OVCAR-8
SF-539 = system: SF-539
MDA-MB-231 = system: MDA-MB-231
HCC 2998 = system: HCC 2998

| SMILES | GI50 (COLO 205) | GI50 (A549) | GI50 (UACC-257) | GI50 (NCI-H522) | GI50 (NCI-H226) | GI50 (HOP-92) | GI50 (NCI/ADR-RES) | GI50 (SF-295) | GI50 (EKVX) | GI50 (SK-MEL-5) | GI50 (SW-620) | GI50 (HT-29) | GI50 (SR) | GI50 (Hs-578T) | GI50 (NCI-H460) | GI50 (OVCAR-8) | GI50 (SF-539) | GI50 (MDA-MB-231) | GI50 (HCC 2998) |
| --- | --- | --- | --- | --- | --- | --- | --- | --- | --- | --- | --- | --- | --- | --- | --- | --- | --- | --- | --- |
| CP(=O)(O)C(N)c1ccccc1 (centres undefined) | > 100 µM (inactive) | > 100 µM (inactive) | > 100 µM (inactive) | > 100 µM (inactive) | > 100 µM (inactive) | > 100 µM (inactive) | > 100 µM (inactive) | > 100 µM (inactive) | > 100 µM (inactive) | > 100 µM (inactive) | > 100 µM (inactive) | > 100 µM (inactive) | > 100 µM (inactive) | > 100 µM (inactive) | > 100 µM (inactive) | > 100 µM (inactive) |  |  |  |
| C/C(=N\Nc1ccccc1Br)c1cccc(/C(C)=N/Nc2ccccc2Br)n1 | 68.2 µM (inactive) | > 100 µM (inactive) | > 100 µM (inactive) |  | > 100 µM (inactive) | 81.5 µM (inactive) | > 100 µM (inactive) | 34.4 µM (inactive) | > 100 µM (inactive) | > 100 µM (inactive) | > 100 µM (inactive) | > 100 µM (inactive) | > 100 µM (inactive) |  | > 100 µM (inactive) | > 100 µM (inactive) | 88.5 µM (inactive) | 43.4 µM (inactive) | > 100 µM (inactive) |
| CC1(C)CCC2=C(O1)c1ccccc1C(=O)C2=O [LAPACHONE] | 1.91 µM (inactive) | 0.753 µM (active) | 0.0938 µM (active) | 0.605 µM (active) | 1.35 µM (inactive) | 3.15 µM (inactive) |  | 0.7 µM (active) | 1.72 µM (inactive) | 0.272 µM (active) | 0.432 µM (active) | 2.5 µM (inactive) | 0.215 µM (active) |  |  | 0.398 µM (active) | 0.463 µM (active) | 0.507 µM (active) |  |
| Cc1c2cc[n+](C)cc2c(C)c2c1[nH]c1ccc(OC(C)(C)C)cc12 | > 100 µM (inactive) | > 100 µM (inactive) | > 100 µM (inactive) | > 100 µM (inactive) | > 100 µM (inactive) | > 100 µM (inactive) |  | > 100 µM (inactive) |  | > 100 µM (inactive) | > 100 µM (inactive) | > 100 µM (inactive) | > 100 µM (inactive) |  | > 100 µM (inactive) | > 100 µM (inactive) | > 100 µM (inactive) |  | > 100 µM (inactive) |
| COC(=O)CCC1(CCC(=O)OC)CCCCCCC(CCC(=O)OC)(CCC(=O)OC)C(=O)C1=O | 54 µM (inactive) | > 100 µM (inactive) | > 100 µM (inactive) | > 100 µM (inactive) | > 100 µM (inactive) | 54.6 µM (inactive) | 81.5 µM (inactive) | > 100 µM (inactive) | > 100 µM (inactive) | 59 µM (inactive) |  | 60.3 µM (inactive) |  | > 100 µM (inactive) | 93.8 µM (inactive) | > 100 µM (inactive) | > 100 µM (inactive) |  | 27.9 µM (inactive) |
| C[C@]12CCC3c4ccc(O)cc4CC[C@H]3C1CC(=O)NC2=O (some centres undefined) | > 10 µM (inactive) | > 10 µM (inactive) | > 10 µM (inactive) |  | > 10 µM (inactive) | > 10 µM (inactive) | > 10 µM (inactive) | > 10 µM (inactive) |  | > 10 µM (inactive) | > 10 µM (inactive) | > 10 µM (inactive) | > 10 µM (inactive) |  | > 10 µM (inactive) | > 10 µM (inactive) | > 10 µM (inactive) | > 10 µM (inactive) | > 10 µM (inactive) |
| C=C1c2nc3ccccc3n2C=C(c2ccccc2)N1c1ccccc1 | 52.5 µM (inactive) | 30.3 µM (inactive) | 74.1 µM (inactive) | 15.8 µM (inactive) | 57.4 µM (inactive) | 50.4 µM (inactive) | 34 µM (inactive) | 32.1 µM (inactive) | > 100 µM (inactive) | 17.1 µM (inactive) | 40.3 µM (inactive) |  | 21.7 µM (inactive) |  | 27.5 µM (inactive) | 37.8 µM (inactive) | 43.6 µM (inactive) | > 100 µM (inactive) | 12.5 µM (inactive) |
| CCN1c2ccccc2-c2c3c1cc(C)cc3c1ccccc1[n+]2CC |  | 2.4 µM (inactive) | 0.437 µM (active) | 1.26 µM (inactive) | 1.75 µM (inactive) | 1.4 µM (inactive) |  | 0.78 µM (active) |  | 0.52 µM (active) | 1.11 µM (active) | 1.41 µM (inactive) | 1.55 µM (inactive) |  | 1.23 µM (inactive) | 0.427 µM (active) | 1.19 µM (inactive) |  | 0.811 µM (active) |
| CCOc1ccc(N/C(=C(/C(Cl)=C(/Cl)Nc2ccccc2)[N+](=O)[O-])n2nnc3ccccc32)cc1 | 20.7 µM (inactive) | 29.1 µM (inactive) | 34.6 µM (inactive) | 14 µM (inactive) | 40.1 µM (inactive) | 16 µM (inactive) | 20 µM (inactive) | 51.3 µM (inactive) | 28.8 µM (inactive) | 17.7 µM (inactive) |  |  |  |  | 27 µM (inactive) |  |  | 24.5 µM (inactive) | 37.7 µM (inactive) |
| CC(CN1c2ccccc2Sc2ccccc21)N(C)C (centres undefined) [PROMETHAZINE HYDROCHLORIDE] | 14.1 µM (inactive) | 20 µM (inactive) | 23.9 µM (inactive) | 19.8 µM (inactive) | 19.1 µM (inactive) | 17.1 µM (inactive) | 15.8 µM (inactive) | 15.4 µM (inactive) | 22.6 µM (inactive) | 21.1 µM (inactive) | 23.6 µM (inactive) | 16.4 µM (inactive) | 21.8 µM (inactive) |  | 17.9 µM (inactive) | 16.2 µM (inactive) | 19.1 µM (inactive) | 17.9 µM (inactive) | 20.1 µM (inactive) |
| C/C(=N\Nc1nc2ccccc2s1)c1cc2ccccc2cn1 | 1.52 µM (inactive) | 3.66 µM (inactive) | 3.55 µM (inactive) | 4.78 µM (inactive) | 1.73 µM (inactive) | 8.63 µM (inactive) | 3.25 µM (inactive) | 3.7 µM (inactive) | 3.34 µM (inactive) | 3.18 µM (inactive) | 3.95 µM (inactive) | 3.31 µM (inactive) | 2.41 µM (inactive) |  | 3.56 µM (inactive) | 2.84 µM (inactive) | 3.83 µM (inactive) | 4.88 µM (inactive) | 7.76 µM (inactive) |
| CCCCOC(C)(C)/C=C/C(O)[C@](C)(O)[C@H]1[C@H](O)C[C@@]2(C)[C@@H]3CCc4c(cc(OC5OC(CO)C(O)C(O)C5O)c(O)c4C)C3(C)C(=O)C[C@]12C (some centres undefined) | > 100 µM (inactive) | > 100 µM (inactive) | > 100 µM (inactive) | > 100 µM (inactive) | > 100 µM (inactive) | > 100 µM (inactive) | > 100 µM (inactive) | > 100 µM (inactive) | > 100 µM (inactive) | > 100 µM (inactive) | > 100 µM (inactive) | > 100 µM (inactive) | > 100 µM (inactive) |  | > 100 µM (inactive) | > 100 µM (inactive) | > 100 µM (inactive) | > 100 µM (inactive) | > 100 µM (inactive) |
| O=C(O)Cc1ccc(Nc2nc3ccccc3nc2C(=O)O)cc1 | > 100 µM (inactive) | > 100 µM (inactive) | > 100 µM (inactive) | > 100 µM (inactive) | > 100 µM (inactive) | > 100 µM (inactive) | > 100 µM (inactive) | > 100 µM (inactive) | > 100 µM (inactive) | > 100 µM (inactive) | > 100 µM (inactive) | > 100 µM (inactive) | > 100 µM (inactive) | > 100 µM (inactive) | > 100 µM (inactive) | > 100 µM (inactive) | > 100 µM (inactive) |  |  |
| CC1(C)CC(=O)C(=CNc2nc(-c3ccccc3)cs2)C(=O)C1 | 33 µM (inactive) | 49 µM (inactive) | 35.1 µM (inactive) |  | 29 µM (inactive) | 71 µM (inactive) | 34.4 µM (inactive) | 57.9 µM (inactive) | 26.2 µM (inactive) | 38.1 µM (inactive) | 31.4 µM (inactive) | 33.6 µM (inactive) |  |  | 30.7 µM (inactive) | 48.6 µM (inactive) | 26.4 µM (inactive) | 34.8 µM (inactive) | 31.2 µM (inactive) |
| COCCOCN(C(=O)C1=CCC2(CC1)OCCO2)c1ccccc1I | > 50 µM (inactive) | > 50 µM (inactive) | > 50 µM (inactive) |  | > 50 µM (inactive) | > 50 µM (inactive) | > 50 µM (inactive) | > 50 µM (inactive) | 29.2 µM (inactive) | > 50 µM (inactive) | > 50 µM (inactive) | > 50 µM (inactive) | > 50 µM (inactive) |  | > 50 µM (inactive) | > 50 µM (inactive) |  | > 50 µM (inactive) | > 50 µM (inactive) |
| CC1=C(C(=O)CC(=O)C(=O)Nc2cccc(Cl)c2C)Sc2ccccc2N1 |  | > 100 µM (inactive) | > 100 µM (inactive) | > 100 µM (inactive) | > 100 µM (inactive) | > 100 µM (inactive) |  | > 100 µM (inactive) | > 100 µM (inactive) | > 100 µM (inactive) | > 100 µM (inactive) | > 100 µM (inactive) | > 100 µM (inactive) |  | > 100 µM (inactive) | > 100 µM (inactive) | > 100 µM (inactive) |  | > 100 µM (inactive) |
| O=C(/C=C/c1ccccc1)NNC(=O)c1c(Cl)c(Cl)c(Cl)c(Cl)c1-c1nc2ccccc2[nH]1 | 18 µM (inactive) | 0.0966 µM (active) | 27.7 µM (inactive) | 24.6 µM (inactive) | 13.9 µM (inactive) | 18.7 µM (inactive) | 23.2 µM (inactive) | 0.0472 µM (active) | 17.6 µM (inactive) | 22 µM (inactive) | 33.3 µM (inactive) | 32.8 µM (inactive) | 12.9 µM (inactive) |  | 23.7 µM (inactive) | 32 µM (inactive) | 22.3 µM (inactive) |  | 21.7 µM (inactive) |
